Values of other authors, collected in patent publication US9358210B2, “Sustained-release pellets containing tacrolimus as an active ingredient” (priority 2010, dated 2016).

solubility in water: 1 to 2 µg/mL
SMILES: C=CC[C@@H]1/C=C(\C)C[C@H](C)C[C@H](OC)[C@H]2O[C@@](O)(C(=O)C(=O)N3CCCC[C@H]3C(=O)O[C@H](/C(C)=C/[C@@H]3CC[C@@H](O)[C@H](OC)C3)[C@H](C)[C@@H](O)CC1=O)[C@H](C)C[C@@H]2OC [tacrolimus, 17-allyl-1,14-dihydroxy-12-[2-(4-hydroxy-3-methoxycyclohexyl)-1-methylvinyl]-23,25-dimethoxy-13,19,21,27-tetramethyl-11,28-dioxa-4-azatricyclo[22.3.1.0]octacos-18-ene-2,3,10,16-tetraone]
